Test results taken from US6369059B1, “Tetracyclic derivatives, process of preparation and use” (ICOS Corporation, priority 1994, dated 2002).

Assays:
human recombinant PDE V = target: T1, human recombinant PDE V (Homo sapiens, UniProt O76074); assay: Inhibitory effect on cGMP-PDE (one-step assay adapted from Wells et al.); format: biochemical; details: 0.15 μM 8-[H3]-cGMP, 30 minutes incubation, 2% DMSO
T1 construct: purchased ICOS, Seattle USA
Procedure: The enzyme used was a human recombinant PDE V (ICOS, Seattle USA).
Compounds of the invention were dissolved in DMSO finally present at 2% in the assay.

[1] = system: Rat aortic smooth muscle cells (RSMC); assay: cGMP level measurements in ANF-stimulated cells; format: cell-based; details: 30 minutes at 37° C. with compound, then ANF (100 nM) for 10 minutes, c-GMP by scintillation proximity immunoassay
Procedure: Rat aortic smooth muscle cells (RSMC) prepared according to Chamley et al. in Cell Tissue Res. 177 503-522 (1977) were used between the 10th and 25th passage at confluence in 24-well culture dishes. Culture media was aspirated and replaced with PBS (0.5 ml) containing the compound tested at the appropriate concentration. After 30 minutes at 37° C., particulates guanylate cyclase was stimulated by addition of ANF (100 nM) for 10 minutes. At the end of incubation, the medium was withdrawn and two extractions were performed by addition of 65% ethanol (0.25 ml). The two ethanolic extracts were pooled and evaporated until dryness, using a Speed-vac system. c-GMP was measured after acetylation by scintillation proximity immunoassay ([…]).

[2] = system: conscious spontaneously hypertensive rats (SHR); assay: Antihypertensive activity in rats; format: in vivo, rat; details: orally 5 mg/kg in 5% DMF and 95% olive oil, carotid artery catheter, recorded for 5 hours
Procedure: The hypotensive effects of compounds according to the invention as identified in table 2 were studied in conscious spontaneously hypertensive rats (SHR). The compounds were administered orally at a dose of 5 mg/kg in a mixture of 5% DMF and 95% olive oil. Blood pressure was measured from a catheter inserted in the carotid artery and recorded for 5 hours after administration. The results are expressed as Area Under the Curve (AUC from 0 to 5 hours, mmHg.hour) of the fall blood pressure over time.

SMILES	IC50 (human recombinant PDE V) [nM]	EC50 [1] [nM]	melting point [°C]	AUC PO (fall in blood pressure over time, AUC from 0 to 5 hours) [2] [mmHg.h]
CN1CC(=O)N2[C@@H](c3ccc4c(c3)CCO4)c3[nH]c4ccccc4c3C[C@@H]2C1=O (relative stereo) [Example 36, Cis-2,3,6,7,12,12a-Hexahydro-6-(2,3-dihydrobenzo[b]furan-5-yl)-2-methyl-pyrazino[2′,1′:6,1]pyrido[3,4-b]indole-1,4-dione]	< 10	500	292 to 294	99
CN1CC(=O)N2C(Cc3c([nH]c4ccccc34)C2c2ccc(Br)s2)C1=O (stereo not drawn) [Example 52, Cis-2,3,6,7,12,12a-Hexahydro-65-bromo-2-thienyl)-2-methyl-pyrazino[2′,1′:6,1]pyrido[3,4-b]indole-1,4-dione]	20	800	258	–
CC(C)N1CC(=O)N2[C@H](c3ccc4c(c3)OCO4)c3[nH]c4ccccc4c3C[C@@H]2C1=O [Example 79, (6R,12aR)-2,3,6,7,12,12a-Hexahydro-2-isopropyl-6-(3,4-methylenedioxyphenyl)-pyrazino[2′,1′:6,1]pyrido[3,4-b]indole-1,4-dione]	< 10	150	290 to 293	171
COc1ccc([C@@H]2c3[nH]c4ccccc4c3C[C@@H]3C(=O)N(CC4CC4)CC(=O)N23)cc1 [Example 84, (6R,12aR)-2,3,6,7,12,12a-Hexahydro-2-cyclopropylmethyl-6-(4-methoxyphenyl)-pyrazino[2′,1′:6.1]pyrido[3,4-b]indole-1,4-dione]	10	400	204 to 205	77
COc1ccc([C@@H]2c3[nH]c4ccccc4c3C[C@@H]3C(=O)N(C)CC(=O)N23)cc1Cl [Example 89]	10	< 100	283 to 284	117
CN1CC(=O)N2[C@H](c3ccc4c(c3)OCO4)c3[nH]c4ccccc4c3C[C@@H]2C1=O [Example 95, (6R,12aR)-2,3,6,7,12,12a-Hexahydro-2-methyl-6-(3,4-methylenedioxyphenyl)-pyrazino[2′,1′:6,1]pyrido[3,4-b]indole-1,4-dione]	–	200	–	135
O=C1NCC(=O)N2[C@H](c3ccc4c(c3)OCO4)c3[nH]c4ccccc4c3C[C@H]12 [Example 101, (6R,12aR)-2,3,6,7,12,12a-Hexahydro-4-(3,4-methylenedioxyphenyl)-pyrazino[2′,1′:6,1]pyrido [3,4-b]indole-1,4-dione]	10	300	285 to 290	136
CCN1CC(=O)N2[C@H](c3ccc(OC)cc3)c3[nH]c4ccccc4c3C[C@@H]2C1=O [Example 108, (6R,12aR)-2,3,6,7,12,12a-Hexahydro-2-ethyl-6-(4-methoxyphenyl)-pyrazino[2′,1′:6,1]pyrido[3,4-b]indole-1,4-dione]	–	–	277	–
O=C1[C@H]2Cc3c([nH]c4ccccc34)[C@@H](c3ccc4c(c3)OCO4)N2C(=O)[C@@H]2CCCN12 [Example 115, (5aR, 12R,14aS)-1,2,3,5,6,11,12,14a-Octahydro-12-(3,4-methylenedioxyphenyl)-pyrrolo[1″,2″:4′,5′]pyrazino[2′,1′:6,1]pyrido[3,4-b]indole-5-1,4-dione]	< 10	400	302 to 304	–

Now from value to compound, other results behind:

IC50 (human recombinant PDE V) [nM]	EC50 [1] [nM]	melting point [°C]	SMILES	AUC PO (fall in blood pressure over time, AUC from 0 to 5 hours) [2] [mmHg.h]
10	150	273 to 274	O=C1[C@H]2Cc3c([nH]c4ccccc34)[C@H](c3ccc4c(c3)OCO4)N2C(=O)CN1Cc1ccncc1 (relative stereo) [Example 12, Cis-2,3,6,7,12,12a-Hexahydro-2-(4-pyridylmethyl)-6-(3,4-methylenedioxyphenyl)-pyrazino[2′,1′:6,1]pyrido[3,4-b]indole-1,4-dione]	–
30	350	194	CCCCN1CC(=O)N2C(Cc3c([nH]c4ccccc34)C2c2ccc(C)cc2)C1=O (stereo not drawn) [Example 63, Cis-2 3,6,7,12,12a-Hexahydro-2-butyl-6-(4-methylphenyl)-pyrazino[2′,1′:6,1]pyrido[3,4-b]indole-1,4-dione]	95
20	500	237 to 239	O=C1[C@H]2Cc3c([nH]c4ccccc34)[C@@H](c3ccc4c(c3)OCO4)N2C(=O)CN1C1CCCC1 [Example 82, (6R,12aR)-2,3,6,7,12,12a-Hexahydro-2-cyclopentyl-6-(3,4-methylenedioxyphenyl)-pyrazino[2′,1′:6,1pyrido3,4-b]indole-1,4-dione]	111
–	–	219 to 220	C[C@@H]1C(=O)N2[C@H](c3ccc4c(c3)OCO4)c3[nH]c4ccccc4c3C[C@@H]2C(=O)N1C [Example 116, (3R,6R,12aR)-2,3,6,7,12,12a-Hexahydro-2,3-dimethyl-6-(3,4-methylenedioxyphenyl)-pyrazino[2′,1′:6,1]pyrido[3,4-b]indole-1,4-dione]	–
–	–	307 to 309	C[C@H]1C(=O)N2[C@H](c3ccc4c(c3)OCO4)c3[nH]c4ccccc4c3C[C@@H]2C(=O)N1C [Example 117, (3S,6R,12aR)-2,3,6,7,12,12a-Hexahydro-2,3-dimethyl-6-(3,4-methylenedioxyphenyl)-pyrazino[2′,1′:6,1]pyrido[3,4-b]indole-1,4-dione]	–
